This assay deals with T1, 20S proteasome (chymotrypsin-like peptidase) (Homo sapiens, UniProt P28074).
T1 construct: gene PSMB5; purified human 20S proteasome; chymotrypsin-like site (beta5, with beta6 contact)
T1 sequence (P28074 60-263): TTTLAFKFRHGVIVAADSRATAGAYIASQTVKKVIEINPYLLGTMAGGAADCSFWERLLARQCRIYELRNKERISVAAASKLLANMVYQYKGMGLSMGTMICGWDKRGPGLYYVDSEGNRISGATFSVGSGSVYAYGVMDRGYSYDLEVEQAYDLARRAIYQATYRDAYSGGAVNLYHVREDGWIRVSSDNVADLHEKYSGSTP
T1 sequence (P20618 29-241 partner): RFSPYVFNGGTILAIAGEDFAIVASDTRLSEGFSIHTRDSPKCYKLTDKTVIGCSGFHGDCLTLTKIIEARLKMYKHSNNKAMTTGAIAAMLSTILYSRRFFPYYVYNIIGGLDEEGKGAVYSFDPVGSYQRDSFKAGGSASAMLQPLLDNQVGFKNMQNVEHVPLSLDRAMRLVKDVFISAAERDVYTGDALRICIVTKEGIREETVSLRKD
Description: fluorogenic peptidase assay. In kind it is biochemical. Particulars: 37 °C; chymotrypsin-like site.

For 1 compound, fluorogenic peptidase assay results are on record in article PMC7304060, “Broad Spectrum Deubiquitinase Inhibition Induces Both Apoptosis and Ferroptosis in Cancer Cells” (Frontiers in Oncology, 2020).

Peptide text beside a SMILES is read from it.

With `Cc1cc(=O)oc2cc(NC(=O)[C@H](Cc3ccc(O)cc3)NC(=O)[C@@H](NC(=O)[C@H](CC(C)C)NC(=O)[C@H](CC(C)C)NC(=O)CCC(=O)O)C(C)C)ccc12` [Suc-LLVY-AMC, Suc-Leu-Leu-Val-Tyr-aminomethylcoumarin] (HELM PEPTIDE1{[O=C(O)CCC(=O)[*:2]].L.L.V.Y.[Cc1cc(=O)oc2cc(N[*:1])ccc12]}$$$$V2.0), the fluorogenic peptidase assay result was “Chymotrypsin-like activity of the proteasome was assessed with fluorogenic Suc-LLVY-AMC substrate”.
